Test results published in patent US20080072337A1, “Braf Expression in Zebrafish and Uses Thereof” (Children's Medical Center Corporation, priority 2004, published 2008).

Test system: zebrafish
Test: Examination of DMBA treated zebrafish for melanoma
Type: in vivo
Conditions: over 10,000 DMBA treated zebrafish examined; unpublished data of the applicants

`Cc1c2ccccc2c(C)c2c1ccc1ccccc12` [DMBA] was tested, and the “melanoma identified in treated zebrafish” value was “failed to identify a single melanoma”.
